pIC50: −log10 of the molar value.
Experiment: In vitro inhibitory activity against Factor Xa

Row | Structure (SMILES) | pIC50
1 | NS(=O)(=O)c1ccccc1-c1ccc(C(=O)NCCNC(=O)c2cc3cc(Cl)ccc3[nH]2)cc1 | 6.12
2 | NS(=O)(=O)c1ccccc1-c1ccc(C(=O)NCCNS(=O)(=O)c2ccc3cc(Br)ccc3c2)cc1 | 5.03
3 | NS(=O)(=O)c1ccccc1-c1ccc(C(=O)NCCNS(=O)(=O)c2cc3cc(Cl)ccc3[nH]2)cc1 | 5.72
4 | NS(=O)(=O)c1ccccc1-c1ccc(C(=O)NCCC(=O)Nc2ccc(Cl)cc2)cc1 | 7.77
5 | NS(=O)(=O)c1ccccc1-c1ccc(C(=O)NC(CC(=O)Nc2ccc(Br)cn2)C(=O)N2CCCC2)cc1 (stereo not drawn) | 7.84
6 | NS(=O)(=O)c1ccccc1-c1ccc(C(=O)NC(CC(=O)Nc2ccc(Br)cn2)C(=O)N2CCOCC2)cc1 (stereo not drawn) | 7.64
7 | NS(=O)(=O)c1ccccc1-c1ccc(C(=O)NC(CC(=O)Nc2ccc(Br)cn2)C(=O)N2CCNCC2)cc1 (stereo not drawn) | 7.04
8 | CN1CCN(C(=O)C(CC(=O)Nc2ccc(Br)cn2)NC(=O)c2ccc(-c3ccccc3S(N)(=O)=O)cc2)CC1 (stereo not drawn) | 7.58
9 | NS(=O)(=O)c1ccccc1-c1ccc(C(=O)NCCNS(=O)(=O)c2ccc(Cl)cc2)cc1 | < 5.00
10 | CS(=O)(=O)NC(CNC(=O)c1ccc(-c2ccccc2S(N)(=O)=O)cc1)C(=O)Nc1ccc(Br)cn1 (stereo not drawn) | 5.90
11 | NS(=O)(=O)c1ccccc1-c1ccc(C(=O)NC(CC(=O)Nc2ccc(Br)cn2)C(=O)NC2CCCC2)cc1 (stereo not drawn) | 7.80
12 | NS(=O)(=O)c1ccccc1-c1ccc(C(=O)NCCC(=O)Nc2ccc(Br)cc2)cc1 | 7.54
13 | NS(=O)(=O)c1ccccc1-c1ccc(C(=O)NC(CC(=O)Nc2ccc(Br)cn2)C(=O)N2CCS(=O)(=O)CC2)cc1 (stereo not drawn) | 7.40
14 | NS(=O)(=O)c1ccccc1-c1ccc(C(=O)NC(CC(=O)Nc2ccc(Br)cn2)C(=O)N2CCCCCC2)cc1 (stereo not drawn) | 8.30
15 | CCCCOC(=O)NC(CNC(=O)c1ccc(-c2ccccc2S(N)(=O)=O)cc1)C(=O)Nc1ccc(Br)cn1 (stereo not drawn) | 5.90
16 | CN(C)CCN(C)C(=O)C(CC(=O)Nc1ccc(Br)cn1)NC(=O)c1ccc(-c2ccccc2S(N)(=O)=O)cc1 (stereo not drawn) | 7.34
17 | NS(=O)(=O)c1ccccc1-c1ccc(C(=O)NCCNS(=O)(=O)c2cc3ccc(Cl)cc3s2)cc1 | 5.96
18 | NS(=O)(=O)c1ccccc1-c1ccc(C(=O)NCC(NC(=O)Nc2ccccc2)C(=O)Nc2ccc(Br)cn2)cc1 (stereo not drawn) | 5.07

Continued, values first:

Row | pIC50 | Structure (SMILES)
19 | 7.61 | COC(=O)C(CC(=O)Nc1ccc(Br)cn1)NC(=O)c1ccc(-c2ccccc2S(N)(=O)=O)cc1 (stereo not drawn)
20 | 7.44 | CCC(=O)NC(CC(=O)Nc1ccc(Br)cn1)C(=O)Nc1ccc(-c2ccccc2S(N)(=O)=O)cc1 (stereo not drawn)
21 | 7.76 | CNC(=O)C(CC(=O)Nc1ccc(Br)cn1)NC(=O)c1ccc(-c2ccccc2S(N)(=O)=O)cc1 (stereo not drawn)
22 | 5.78 | NC(CNC(=O)c1ccc(-c2ccccc2S(N)(=O)=O)cc1)C(=O)Nc1ccc(Br)cn1 (stereo not drawn)
23 | 6.70 | NS(=O)(=O)c1ccccc1-c1ccc(NC(=O)C(CC(=O)Nc2ccc(Br)cn2)NC(=O)C(F)(F)F)cc1 (stereo not drawn)
24 | 8.48 | CCOC(=O)CNC(=O)C(CC(=O)Nc1ccc(Br)cn1)NC(=O)c1ccc(-c2ccccc2S(N)(=O)=O)cc1 (stereo not drawn)
25 | 6.35 | NS(=O)(=O)c1ccccc1-c1ccc(NC(=O)C(CC(=O)Nc2ccc(Br)cn2)NC(=O)C2CCCNC2)cc1 (stereo not drawn)
26 | 7.58 | NS(=O)(=O)c1ccccc1-c1ccc(C(=O)NC(CC(=O)Nc2ccc(Br)cn2)C(=O)Nc2ccccc2)cc1 (stereo not drawn)
27 | 6.74 | CC(=O)NC(CC(=O)Nc1ccc(Br)cn1)C(=O)Nc1ccc(-c2ccccc2S(N)(=O)=O)cc1 (stereo not drawn)
28 | 6.82 | NCC(=O)NC(CC(=O)Nc1ccc(Br)cn1)C(=O)Nc1ccc(-c2ccccc2S(N)(=O)=O)cc1 (stereo not drawn)
29 | 6.84 | NC(CC(=O)Nc1ccc(Br)cn1)C(=O)Nc1ccc(-c2ccccc2S(N)(=O)=O)cc1 (stereo not drawn)
30 | 6.09 | CC(=O)NC(CNC(=O)c1ccc(-c2ccccc2S(N)(=O)=O)cc1)C(=O)Nc1ccc(Br)cn1 (stereo not drawn)
31 | 7.36 | CNCCNC(=O)C(CC(=O)Nc1ccc(Br)cn1)NC(=O)c1ccc(-c2ccccc2S(N)(=O)=O)cc1 (stereo not drawn)
32 | 7.30 | CN(C)CCNC(=O)C(CC(=O)Nc1ccc(Br)cn1)NC(=O)c1ccc(-c2ccccc2S(N)(=O)=O)cc1 (stereo not drawn)
33 | 6.67 | CN(C)CC(=O)NC(CC(=O)Nc1ccc(Br)cn1)C(=O)Nc1ccc(-c2ccccc2S(N)(=O)=O)cc1 (stereo not drawn)
